Laboratory results from PubChem BioAssay (NCI).
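All cell lines were grown in 96-well plates and treated with compound for 48 hours. Abbreviation: GI50, concentration required for 50% inhibition of growth. Definition used: TGI = concentration required for complete inhibition of growth.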

What was measured:
Assay in all cases: NCI-60 cell line screen, 48 h
[1] = test system: 786-0 renal
[2] = test system: A498 renal
[3] = test system: A549 NSCLC
[4] = test system: ACHN renal
[5] = test system: BT-549 breast
[6] = test system: CAKI-1 renal
[7] = test system: CCRF-CEM leukemia
[8] = test system: COLO 205 colon
[9] = test system: DU-145 prostate
[10] = test system: EKVX NSCLC
[11] = test system: HCC-2998 colon
[12] = test system: HCT-116 colon
[13] = test system: HCT-15 colon
[14] = test system: HL-60(TB) leukemia
[15] = test system: HOP-62 NSCLC
[16] = test system: HOP-92 NSCLC
[17] = test system: HS 578T breast
[18] = test system: HT29 colon
[19] = test system: IGROV1 ovarian
[20] = test system: K-562 leukemia
[21] = test system: KM12 colon
[22] = test system: LOX IMVI melanoma
[23] = test system: M14 melanoma
[24] = test system: MALME-3M melanoma
[25] = test system: MCF7 breast
[26] = test system: MDA-MB-435
[27] = test system: MDA-MB-468 breast
[28] = test system: MOLT-4 leukemia
[29] = test system: NCI-H226 lung
[30] = test system: NCI-H23 lung
[31] = test system: NCI-H460 lung
[32] = test system: NCI-H522 lung
[33] = test system: NCI/ADR-RES ovarian
[34] = test system: OVCAR-3 ovarian
[35] = test system: OVCAR-4 ovarian
[36] = test system: OVCAR-5 ovarian
[37] = test system: OVCAR-8 ovarian
[38] = test system: PC-3 prostate
[39] = test system: RPMI-8226 leukemia
[40] = test system: RXF 393 renal
[41] = test system: SF-268 CNS
[42] = test system: SF-295 CNS
[43] = test system: SF-539 CNS
[44] = test system: SK-MEL-28 melanoma
[45] = test system: SK-MEL-5 melanoma
[46] = test system: SK-OV-3 ovarian
[47] = test system: SN12C renal
[48] = test system: SNB-19 CNS
[49] = test system: SR leukemia
[50] = test system: SW-620 colon
[51] = test system: T-47D breast
[52] = test system: TK-10 renal
[53] = test system: U251 CNS
[54] = test system: UACC-257 melanoma
[55] = test system: UACC-62 melanoma

COc1ccc2ccccc2c1/C=C1\SC(=Nc2ccc(O)cc2)NC1=O
GI50 [1]: 3.19 µM | TGI [1]: 21 µM | GI50 [2]: 3.7 µM | TGI [2]: 16.4 µM | GI50 [3]: 2010 nM | TGI [3]: 16.9 µM | GI50 [4]: 1810 nM | TGI [4]: 16.3 µM | GI50 [5]: 1040 nM | TGI [5]: 4.54 µM | GI50 [6]: 11.1 µM | TGI [6]: 46.5 µM | GI50 [7]: 651 nM | TGI [7]: 30.1 µM | GI50 [8]: 1880 nM | TGI [8]: 5.04 µM | GI50 [9]: 2170 nM | TGI [9]: 19.6 µM | GI50 [10]: 1110 nM | TGI [10]: 17.3 µM | GI50 [11]: 1730 nM | TGI [11]: 12.6 µM | GI50 [12]: 432 nM | TGI [12]: 11.6 µM | GI50 [13]: 442 nM | TGI [13]: 11.1 µM | GI50 [14]: 431 nM | TGI [14]: 2650 nM | GI50 [15]: 2580 nM | TGI [15]: 13.6 µM | GI50 [16]: 2050 nM | TGI [16]: 20.3 µM | GI50 [17]: 400 nM | TGI [17]: 11.9 µM | GI50 [18]: 2820 nM | TGI [18]: 7.35 µM | GI50 [19]: 1850 nM | TGI [19]: 14.4 µM | GI50 [20]: 413 nM | TGI [20]: 11.9 µM | GI50 [21]: 1190 nM | TGI [21]: 14.8 µM | GI50 [22]: 666 nM | TGI [22]: 12.1 µM | GI50 [23]: 492 nM | TGI [23]: 10.8 µM | GI50 [24]: 1020 nM | TGI [24]: 14.4 µM | GI50 [25]: 428 nM | TGI [25]: 12.5 µM | GI50 [26]: 235 nM | TGI [26]: 591 nM | GI50 [27]: 370 nM | TGI [27]: 1820 nM | GI50 [28]: 1510 nM | TGI [28]: 11.3 µM | GI50 [29]: 5.56 µM | TGI [29]: 34.7 µM | GI50 [30]: 1110 nM | TGI [30]: 11.3 µM | GI50 [31]: 833 nM | TGI [31]: 11.3 µM | GI50 [32]: 422 nM | TGI [32]: 2220 nM | GI50 [33]: 950 nM | TGI [33]: 3.8 µM | GI50 [34]: 425 nM | TGI [34]: 11.7 µM | GI50 [35]: 3.81 µM | TGI [35]: 21.1 µM | GI50 [36]: 3.56 µM | TGI [36]: 16.2 µM | GI50 [37]: 1580 nM | TGI [37]: 6.51 µM | GI50 [38]: 798 nM | TGI [38]: 29.1 µM | GI50 [39]: 2590 nM | TGI [39]: 9.45 µM | GI50 [40]: 272 nM | TGI [40]: 1710 nM | GI50 [41]: 1590 nM | TGI [41]: 18.7 µM | GI50 [42]: 843 nM | TGI [42]: 10.9 µM | GI50 [43]: 517 nM | TGI [43]: 3.4 µM | GI50 [44]: 966 nM | TGI [44]: 19.9 µM | GI50 [45]: 540 nM | TGI [45]: 2280 nM | GI50 [46]: 1660 nM | TGI [46]: 18 µM | GI50 [47]: 2480 nM | TGI [47]: 13.3 µM | GI50 [48]: 1800 nM | TGI [48]: 14 µM | GI50 [49]: 321 nM | TGI [49]: 12.5 µM | GI50 [50]: 437 nM | TGI [50]: 15.8 µM | GI50 [51]: 765 nM | TGI [51]: 31.7 µM | GI50 [52]: 4.14 µM | TGI [52]: 21.6 µM | GI50 [53]: 425 nM | TGI [53]: 11.3 µM | GI50 [54]: 683 nM | TGI [54]: 19.6 µM | GI50 [55]: 346 nM | TGI [55]: 12.5 µM
